This is an account of results in ChEMBL document CHEMBL1201862, “PubChem BioAssay data set” (2004).

Structures are written as SMILES. The source made the active and inactive calls. For most assays here, no stated cut-off is given here; in the data, actives have a measured EC50 and inactives only a lower limit.

Experiment [1] in a line: C. albicans growth with fluconazole, confirmation, fluorescence, retest (AID 2467). It is filed as functional, cell-based.
Experiment [2] can be described thus: NIH-3T3 fibroblast cytotoxicity, dose response, cytotoxicity control, cell-based, fluorescence, Alamar Blue, secondary assay (AID 2327).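 Further: NIH-3T3 mouse fibroblasts cultured with fluconazole at 8 µg/mL.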 It is filed as functional.
Experiment [3] can be described thus: Luminescence Cell-Based Dose Retest to Confirm Inhibitors of Cancer Stem Cells. [Related pubchem assays (depositor defined):AID2717, AID2721]. It is filed as functional. To be noted: Homo sapiens.
A further experiment concerns Streptococcus. Kind of experiment: Group A Streptococcus viability loss, dose response, counter-screen for streptokinase expression inhibitor project, luminescence, BacTiterGlo (AID 1915).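 Further: potency for reduction of bacterial viability or growth.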 It counts as functional, organism-based.
For experiment [4], the system named is Streptococcus sp. 'group A'. Nature of the experiment: growth inhibition of control SK(-) GAS strain, dose response, counter-screen for streptokinase expression inhibitor project, luminescence, kanamycin, BacTiterGlo, confirmation (AID 1900). It is filed as functional, organism-based.
For experiment [5], the target named is T1, Replicative DNA helicase DnaB (Mycobacterium tuberculosis, UniProt P9WMR3).
T1 sequence (P9WMR3 whole entry): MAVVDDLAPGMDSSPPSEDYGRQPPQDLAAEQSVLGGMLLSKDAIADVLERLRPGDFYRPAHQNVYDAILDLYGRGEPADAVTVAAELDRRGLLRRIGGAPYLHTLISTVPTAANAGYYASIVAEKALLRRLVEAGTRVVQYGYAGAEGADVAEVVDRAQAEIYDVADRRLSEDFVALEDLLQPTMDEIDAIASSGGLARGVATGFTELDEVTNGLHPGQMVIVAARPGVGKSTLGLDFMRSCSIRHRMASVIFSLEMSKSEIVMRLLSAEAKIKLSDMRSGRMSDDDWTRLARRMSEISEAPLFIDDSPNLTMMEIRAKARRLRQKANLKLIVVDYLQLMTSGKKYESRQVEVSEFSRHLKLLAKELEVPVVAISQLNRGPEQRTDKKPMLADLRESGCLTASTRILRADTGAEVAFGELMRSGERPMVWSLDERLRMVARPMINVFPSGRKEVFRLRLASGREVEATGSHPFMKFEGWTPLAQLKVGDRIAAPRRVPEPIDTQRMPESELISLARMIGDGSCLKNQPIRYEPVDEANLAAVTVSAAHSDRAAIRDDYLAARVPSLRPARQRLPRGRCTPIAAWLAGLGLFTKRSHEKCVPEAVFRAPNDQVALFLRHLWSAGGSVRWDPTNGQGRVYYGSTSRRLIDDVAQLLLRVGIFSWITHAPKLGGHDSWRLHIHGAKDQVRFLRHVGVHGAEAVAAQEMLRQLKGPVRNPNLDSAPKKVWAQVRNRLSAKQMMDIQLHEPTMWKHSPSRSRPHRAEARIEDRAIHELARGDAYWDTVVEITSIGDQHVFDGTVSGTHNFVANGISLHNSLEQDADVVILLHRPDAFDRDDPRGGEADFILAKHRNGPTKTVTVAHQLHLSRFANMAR
Kind of experiment: DnaB intein splicing inhibitors, dose response, biochemical, cell-free fluorescence (AID 449749). It counts as functional.

Another experiment has as its target T2, Streptokinase A (Streptococcus pyogenes serotype M1, UniProt P10520).
T2 sequence (P10520 whole entry): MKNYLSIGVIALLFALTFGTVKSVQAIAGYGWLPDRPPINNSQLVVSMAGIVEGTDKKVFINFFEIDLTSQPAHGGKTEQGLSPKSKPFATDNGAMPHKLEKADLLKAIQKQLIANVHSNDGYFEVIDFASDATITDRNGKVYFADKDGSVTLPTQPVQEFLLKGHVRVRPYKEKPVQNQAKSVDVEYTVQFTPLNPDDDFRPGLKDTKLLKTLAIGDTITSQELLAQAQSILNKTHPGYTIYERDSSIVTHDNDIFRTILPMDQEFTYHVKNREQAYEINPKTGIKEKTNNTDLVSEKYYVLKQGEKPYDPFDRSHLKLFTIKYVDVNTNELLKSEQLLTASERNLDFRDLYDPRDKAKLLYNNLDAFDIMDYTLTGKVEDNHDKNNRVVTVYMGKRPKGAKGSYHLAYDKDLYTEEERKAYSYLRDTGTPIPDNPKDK
Kind of experiment: S. pyogenes streptokinase expression inhibitors, potency, dose response, plasminogen activation absorbance, OD405 (AID 1914).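 Further: secreted streptokinase activity via plasminogen activation per viability signal from cell pellet.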 It is filed as functional, Streptococcus pyogenes M1 GAS.

The target in the next experiment is T3, Protein RecA (Mycobacterium tuberculosis, UniProt P9WHJ3).
T3 sequence (P9WHJ3 whole entry): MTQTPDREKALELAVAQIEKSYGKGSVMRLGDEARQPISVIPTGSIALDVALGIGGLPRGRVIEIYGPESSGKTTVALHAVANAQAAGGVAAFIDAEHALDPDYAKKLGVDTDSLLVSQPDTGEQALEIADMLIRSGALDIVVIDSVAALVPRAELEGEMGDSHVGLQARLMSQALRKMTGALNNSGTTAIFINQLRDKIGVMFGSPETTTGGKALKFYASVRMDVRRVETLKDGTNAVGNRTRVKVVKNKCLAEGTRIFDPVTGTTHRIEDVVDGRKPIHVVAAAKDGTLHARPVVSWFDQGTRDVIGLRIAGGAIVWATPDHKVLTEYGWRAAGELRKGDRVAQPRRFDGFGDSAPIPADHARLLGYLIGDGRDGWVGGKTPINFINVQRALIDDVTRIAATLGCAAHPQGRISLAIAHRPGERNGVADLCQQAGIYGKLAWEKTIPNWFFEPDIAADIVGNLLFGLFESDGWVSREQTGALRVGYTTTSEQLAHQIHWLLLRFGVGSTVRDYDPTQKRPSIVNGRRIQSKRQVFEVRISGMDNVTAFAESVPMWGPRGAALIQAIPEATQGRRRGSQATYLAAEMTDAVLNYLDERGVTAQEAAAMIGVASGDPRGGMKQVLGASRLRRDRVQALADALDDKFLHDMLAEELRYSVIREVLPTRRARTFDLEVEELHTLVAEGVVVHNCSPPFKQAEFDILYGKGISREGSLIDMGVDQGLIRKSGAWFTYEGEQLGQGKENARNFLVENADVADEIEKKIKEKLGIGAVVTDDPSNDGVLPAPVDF
Nature of the experiment: Fluorescence Cell-Free Homogeneous Dose Retest to Identify Inhibitors of RecA-Intein Splicing Activity. [Related pubchem assays (depositor defined):AID2097, AID2223, AID489010, AID492950]. It counts as functional.

A further experiment relates to INS1. Kind of experiment: beta cell apoptosis inhibitors, cytokine rescue, dose response, luminescence, retest (AID 449756).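 Further: cell death triggered by IL-1 beta plus TNF-alpha plus IFN-gamma mixture; protective hits raise ATP signal compared with cytokine alone wells.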 It counts as functional, cell-based. To be noted: Rattus norvegicus.
Experiment [6] is described as follows: HEp-2 cell cytotoxicity, dose response, cytotoxicity control for RSV inhibitor project, HTS (AID 2410). It is filed as functional. To be noted: human respiratory syncytial virus.
Experiment [7] in a line: cytotoxicity toward NIH3T3 fibroblasts, dose response, counter-screen, cell-based, ATP luminescence, mouse fibroblasts (AID 2010).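 Further: cells exposed to compound for about 90 hours before reading.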 It is filed as functional.
The nature of experiment [8]: inhibitors of intracellular T. cruzi replication, confirmation, NIH3T3 host cells, beta-gal luminescence (AID 2044).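 Further: intracellular parasites grown in NIH/3T3 mouse fibroblasts as host cells; luminescent beta-galactosidase reporter signal from transgenic T. cruzi replicating inside host cells; inhibitors lower the luminescence signal.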 It is filed as functional, cell-based.

For `Cc1ccccc1-c1ccnc2[nH]n(-c3ccccc3)c(=O)c12`, the EC50 is > 38 µM (not active) in experiment [1] and > 160 µM (inactive) in [2].

`COc1cc(/C=C(\C#N)c2ccccn2)ccc1OCC(=O)Nc1ccc(Br)cc1`: the AC50 in experiment [3] is 1.71 µM (active).

As for `O=c1c2cc(Br)ccc2nc(-c2ccccc2)n1O`, the EC50 was 1.99 µM (active) in experiment [1] and 70.4 µM (active) in experiment [2].

For `CC1(C)CC[C@]2(CO)CC[C@]3(C)C(=CCC4[C@@]5(C)CC[C@H](O)[C@@](C)(CO)C5CC[C@]43C)[C@@H]2C1` (stereo partly specified), in [3], the concentration at half-maximal activity (AC50) was 3.13 µM (active).

Turning to `O=C1NC[C@@H](Cc2cccc3ccccc23)N(CCCCC2CCCCC2)C1=O`, the AC50 in experiment [3] was 3.84 µM (active). Besides, the EC50 in the experiment on Streptococcus was 7.07 µM (active); in experiment [4], 3.38 µM (active).

Regarding `CC(C)NC(=S)NC(c1ccccc1)(c1ccccc1)c1ccccc1`, the AC50 in experiment [5] was 3.07 µM (active). For the same molecule, the figures for the EC50 at Streptokinase A and at Protein RecA were 11.7 µM (active) and 136 µM (inconclusive), respectively.

As for `O=C1NN(c2ccc(F)cc2)C(=O)/C1=C/c1cccs1`, the EC50 in experiment [1] is > 38 µM (not active); in experiment [2] it was > 160 µM (inactive).

Regarding `CSc1ccc(C2=CC(=O)C[C@H](c3ccc(Cl)cc3)C2)cc1`, the AC50 in experiment [3] was 1.7 µM (active).

As for `CC(C)C(=O)NC(c1ccccc1)c1cc([N+](=O)[O-])c2cccnc2c1O` (stereo unspecified), the AC50 in the experiment on INS1 is 6.59 µM (active); in [3] it was 1.27 µM (active). Moreover, the concentration giving a half-maximal response (EC50) at Streptokinase A was > 150 µM (not active); with Streptococcus it was 2.98 µM (active); in experiment [4], 2.12 µM (active).

In the case of `CCc1c(C)sc2nc(C(C)C)nc(SCC(=O)N3CCc4ccccc4C3)c12`, the results for the AC50 (with INS1; in experiment [3]) were 1.94 µM (active) and 4.63 µM (active), respectively. Moreover, the concentration for a half-maximal effect (EC50) at Streptokinase A is 2.38 µM (active); in the experiment on Streptococcus, 15.1 µM (active); in [4], 9.77 µM (active).

On to `CCn1nnnc1NC(=O)c1cc(Cl)c(OC)c(Cl)c1`, for which the concentration giving a half-maximal response (EC50) in experiment [1] is 2.51 µM (active); in experiment [2], > 160 µM (inactive).

Take `O=C(Nc1ccc(O)cc1)c1ccc(NC(=O)c2cccs2)cc1`: the AC50 in experiment [3] was 3.51 µM (active).

On to `Cc1cc(OCc2nc(-c3ccc(NC(=O)c4cccnc4)cc3)no2)ccc1Cl`, for which the AC50 in the experiment with INS1 is 0.624 µM (active). Moreover, the CC50 in [6] was > 50 µM (active).

Turning to `CC1CCCN(C(=O)COc2ccc(NC(=O)c3cccs3)cc2)C1` (stereo unspecified), the AC50 in experiment [5] is > 380 µM (inactive). Besides, the EC50 at Protein RecA is > 380 µM (inactive).

As for `Oc1ccc(O)c2c1C1c3ccccc3C2c2ccccc21`, the EC50 in experiment [1] is 2.94 µM (active); in experiment [2], 25 µM (active); at Protein RecA, 2.08 µM (active). Also, the AC50 in experiment [5] was 34.5 µM (active).

In the case of `CCN=C(S)N1N=C2c3ccccc3CCC2C1c1ccc(F)cc1` (stereo unspecified), the concentration at half-maximal activity (AC50) in [3] was 1.46 µM (active).

Take `COc1ccc(COC(=O)N/N=C(\C)CC(=O)Nc2ccc(Cl)cn2)cc1`: the AC50 in experiment [5] is 5.46 µM (active). For the same molecule, at Protein RecA, the EC50 is 4.27 µM (active).

On to `CC(C)N=C(S)NC(c1ccccc1)(c1ccccc1)c1ccccc1`, for which the concentration giving a half-maximal response (EC50) was > 60 µM (not active) in experiment [7], 3.99 µM (active) in experiment [8], > 150 µM (not active) in the experiment on Streptococcus and 6.6 µM (active) in experiment [4]. Besides, the AC50 in the experiment on INS1 was 8.18 µM (active).

Turning to `CCC(C)n1c(-c2cccs2)nc2nc3ccccc3nc21` (stereo unspecified), the half-maximal activity concentration (AC50) in experiment [3] is 2.73 µM (active).

`COc1cc(/C=N/Nc2nc(Nc3ccccc3)nc(-n3nc(C)cc3C)n2)cc(OC)c1OC`: the EC50 in experiment [7] is 7.23 µM (active); in experiment [8], 0.737 µM (active); on Streptokinase A, > 150 µM (not active); in the experiment on Streptococcus, 13.8 µM (active); in [4], 5.1 µM (active). The AC50 in [3] is 3.63 µM (active).

Turning to `CCCC(O)(c1ccc(Cl)cc1)C(CN1CCOCC1)c1ccc(Cl)cc1` (stereo unspecified), the half-maximal activity concentration (AC50) in experiment [3] was 6 µM (active).

In the case of `O=C(O)/C=C/C(=O)Nc1ccc(SC(F)(F)C(F)(F)C(F)(F)F)cc1`, the half-maximal activity concentration (AC50) in experiment [5] is 11.7 µM (active). The EC50 at Protein RecA is 2.59 µM (active).

Take `Cc1[nH]n(-c2ccccc2)c(=O)c1/C=C1/C(=O)NN(c2ccc(F)cc2)C1=O`: in [3], the AC50 was 4.08 µM (active).

Regarding `COC(CN(C(=O)CCl)C(C(=O)NC1CCCC(C)C1C)c1ccc(C)cc1)OC` (stereo unspecified), the AC50 in [5] is 24.6 µM (active). Besides, the 50% effective concentration (EC50) at Protein RecA was 2.11 µM (active).

`CCc1n[nH]c2c1C(c1ccc(C)o1)C(C#N)=C(N)O2` (stereo unspecified): the AC50 in experiment [5] is 37.3 µM (active). The EC50 at Protein RecA was 4.31 µM (active).

Regarding `COc1ccc(-c2csc(N(CC3CCCO3)C(=O)c3ccco3)n2)cc1` (stereo unspecified), the EC50 in experiment [1] was > 38 µM (not active); in experiment [2] it was > 160 µM (inactive).
